{"source": "patent US20070173535A1", "about": "“Oxadiazoles having antiproliferative activity” (priority 2002, published 2007)"}
{"system": "MCF7 breast, NCI-H460 microcitoma and SF-268 SNC", "test": "NCI preliminary tests on three cell lines, mean GI50", "assay_type": "cell-based, human", "conditions": "mean concentration causing 50% inhibition of cell growth; N.A. = inactive in preliminary tests on three cell lines", "protocol": "(§1) Biological assays were carried out at the National Cancer Institute according to known experimental protocols [(a) Monks A., Scudiero D., Skehan P., Shoemaker R., Paull K., Vistica D., Hose C., Langley J., Cronise P., Vaigro-Wolff A., Gray-Goodrich M., Campbell H., Mayo J., Boyd M., J. Natl. Cancer Inst., 83, 757-766 (1991). (b) Paull K. D., Shoemaker R. H., Hods L., Monks A., Scudiero D. A., Rubinstein L., Plowman J., Boyd M. R., J. Natl. Cancer Inst., 81, 1088-1092 (1989). (c) Boyd M. R., Paull K. D., Rubinstein L. R., Cytotoxic Anticancer Drugs: Models and Concept for Drug discovery, Valeriote F. A., Corbett T., Baker L., Eds., Kluwer Academic Publishers: Amsterdam, 1992, pp. 11].\nTable 1 reports the GI50, namely the mean concentration (μM) of substance which causes a 50% inhibition on the cell growth in preliminary tests carried out on three cell lines (MCF7 breast, NCI-H460 microcitoma and SF-268 SNC).", "units": {"GI50 μM) Mean": "µM"}}
{"smiles": "c1ccc2c(c1)CCc1c(-c3nnco3)c[nH]c1-2", "note": "[Ie, 3-[[1,3,4]oxadiazol-2′-yl]-4,5-dihydro-1H-benzo[g]indole]", "GI50 μM) Mean": 26.6}
{"smiles": "c1ccc2c(c1)ccc1c(-c3nnco3)c[nH]c12", "note": "[Ih, 3-[[1,3,4]oxadiazol-2′-yl]-1H-benzo[g]indole]", "GI50 μM) Mean": 35.4}
{"smiles": "c1ccc(-c2nnc(-c3c[nH]c4c3ccc3ccccc34)o2)cc1", "note": "[Il, 3-[[1,3,4]oxadiazole-5′-phenyl-2′-yl]-1H-benzo[g]indole]", "GI50 μM) Mean": 1.28}
{"smiles": "Cn1cc(-c2nnco2)c2ccc3ccccc3c21", "note": "[Im, 1-methyl-3-[[1,3,4]oxadiazol-2′-yl]-1H-benzo[g]indole]", "GI50 μM) Mean": 33.1}
{"system": "Leukemia", "test": "NCI GI50 on tumor cells, leukemia", "assay_type": "cell-based, human", "conditions": "Leukemia cell lines; NA = inactive products", "protocol": "as §1", "units": {"GI50": "µM"}}
{"smiles": "c1ccc2c(c1)CCc1c(-c3nnco3)c[nH]c1-2", "note": "[Ie, 3-[[1,3,4]oxadiazol-2′-yl]-4,5-dihydro-1H-benzo[g]indole]", "GI50": 26.3}
{"smiles": "c1ccc2c(c1)ccc1c(-c3nnco3)c[nH]c12", "note": "[Ih, 3-[[1,3,4]oxadiazol-2′-yl]-1H-benzo[g]indole]", "GI50": 44.6}
{"smiles": "c1ccc(-c2nnc(-c3c[nH]c4c3ccc3ccccc34)o2)cc1", "note": "[Il, 3-[[1,3,4]oxadiazole-5′-phenyl-2′-yl]-1H-benzo[g]indole]", "GI50": 0.64}
{"smiles": "Cn1cc(-c2nnco2)c2ccc3ccccc3c21", "note": "[Im, 1-methyl-3-[[1,3,4]oxadiazol-2′-yl]-1H-benzo[g]indole]", "GI50": 54.9}
{"system": "Microcitoma", "test": "NCI GI50 on tumor cells, microcitoma", "assay_type": "cell-based, human", "conditions": "Microcitoma cell lines; NA = inactive products", "protocol": "as §1", "units": {"GI50": "µM"}}
{"smiles": "c1ccc2c(c1)CCc1c(-c3nnco3)c[nH]c1-2", "note": "[Ie, 3-[[1,3,4]oxadiazol-2′-yl]-4,5-dihydro-1H-benzo[g]indole]", "GI50": 21.8}
{"smiles": "c1ccc2c(c1)ccc1c(-c3nnco3)c[nH]c12", "note": "[Ih, 3-[[1,3,4]oxadiazol-2′-yl]-1H-benzo[g]indole]", "GI50": 22.3}
{"smiles": "c1ccc(-c2nnc(-c3c[nH]c4c3ccc3ccccc34)o2)cc1", "note": "[Il, 3-[[1,3,4]oxadiazole-5′-phenyl-2′-yl]-1H-benzo[g]indole]", "GI50": 2.36}
{"smiles": "Cn1cc(-c2nnco2)c2ccc3ccccc3c21", "note": "[Im, 1-methyl-3-[[1,3,4]oxadiazol-2′-yl]-1H-benzo[g]indole]", "GI50": 17.7}
{"system": "Colon", "test": "NCI GI50 on tumor cells, colon", "assay_type": "cell-based, human", "conditions": "Colon cell lines; NA = inactive products", "protocol": "as §1", "units": {"GI50": "µM"}}
{"smiles": "c1ccc2c(c1)CCc1c(-c3nnco3)c[nH]c1-2", "note": "[Ie, 3-[[1,3,4]oxadiazol-2′-yl]-4,5-dihydro-1H-benzo[g]indole]", "GI50": 25.7}
{"smiles": "c1ccc2c(c1)ccc1c(-c3nnco3)c[nH]c12", "note": "[Ih, 3-[[1,3,4]oxadiazol-2′-yl]-1H-benzo[g]indole]", "GI50": 33.8}
{"smiles": "c1ccc(-c2nnc(-c3c[nH]c4c3ccc3ccccc34)o2)cc1", "note": "[Il, 3-[[1,3,4]oxadiazole-5′-phenyl-2′-yl]-1H-benzo[g]indole]", "GI50": 0.7}
{"smiles": "Cn1cc(-c2nnco2)c2ccc3ccccc3c21", "note": "[Im, 1-methyl-3-[[1,3,4]oxadiazol-2′-yl]-1H-benzo[g]indole]", "GI50": 38.9}
{"system": "SNC", "test": "NCI GI50 on tumor cells, SNC", "assay_type": "cell-based, human", "conditions": "SNC cell lines; NA = inactive products", "protocol": "as §1", "units": {"GI50": "µM"}}
{"smiles": "c1ccc2c(c1)CCc1c(-c3nnco3)c[nH]c1-2", "note": "[Ie, 3-[[1,3,4]oxadiazol-2′-yl]-4,5-dihydro-1H-benzo[g]indole]", "GI50": 28.2}
{"smiles": "c1ccc2c(c1)ccc1c(-c3nnco3)c[nH]c12", "note": "[Ih, 3-[[1,3,4]oxadiazol-2′-yl]-1H-benzo[g]indole]", "GI50": 32.3}
{"smiles": "c1ccc(-c2nnc(-c3c[nH]c4c3ccc3ccccc34)o2)cc1", "note": "[Il, 3-[[1,3,4]oxadiazole-5′-phenyl-2′-yl]-1H-benzo[g]indole]", "GI50": 1.21}
{"smiles": "Cn1cc(-c2nnco2)c2ccc3ccccc3c21", "note": "[Im, 1-methyl-3-[[1,3,4]oxadiazol-2′-yl]-1H-benzo[g]indole]", "GI50": 23.9}
{"system": "Melanoma", "test": "NCI GI50 on tumor cells, melanoma", "assay_type": "cell-based, human", "conditions": "Melanoma cell lines; NA = inactive products", "protocol": "as §1", "units": {"GI50": "µM"}}
{"smiles": "c1ccc2c(c1)CCc1c(-c3nnco3)c[nH]c1-2", "note": "[Ie, 3-[[1,3,4]oxadiazol-2′-yl]-4,5-dihydro-1H-benzo[g]indole]", "GI50": 28.8}
{"smiles": "c1ccc2c(c1)ccc1c(-c3nnco3)c[nH]c12", "note": "[Ih, 3-[[1,3,4]oxadiazol-2′-yl]-1H-benzo[g]indole]", "GI50": 33.8}
{"smiles": "c1ccc(-c2nnc(-c3c[nH]c4c3ccc3ccccc34)o2)cc1", "note": "[Il, 3-[[1,3,4]oxadiazole-5′-phenyl-2′-yl]-1H-benzo[g]indole]", "GI50": 2.71}
{"smiles": "Cn1cc(-c2nnco2)c2ccc3ccccc3c21", "note": "[Im, 1-methyl-3-[[1,3,4]oxadiazol-2′-yl]-1H-benzo[g]indole]", "GI50": 43.6}
{"system": "Ovary", "test": "NCI GI50 on tumor cells, ovary", "assay_type": "cell-based, human", "conditions": "Ovary cell lines; NA = inactive products", "protocol": "as §1", "units": {"GI50": "µM"}}
{"smiles": "c1ccc2c(c1)CCc1c(-c3nnco3)c[nH]c1-2", "note": "[Ie, 3-[[1,3,4]oxadiazol-2′-yl]-4,5-dihydro-1H-benzo[g]indole]", "GI50": 28.2}
{"smiles": "c1ccc2c(c1)ccc1c(-c3nnco3)c[nH]c12", "note": "[Ih, 3-[[1,3,4]oxadiazol-2′-yl]-1H-benzo[g]indole]", "GI50": 38.9}
{"smiles": "c1ccc(-c2nnc(-c3c[nH]c4c3ccc3ccccc34)o2)cc1", "note": "[Il, 3-[[1,3,4]oxadiazole-5′-phenyl-2′-yl]-1H-benzo[g]indole]", "GI50": 1.7}
{"smiles": "Cn1cc(-c2nnco2)c2ccc3ccccc3c21", "note": "[Im, 1-methyl-3-[[1,3,4]oxadiazol-2′-yl]-1H-benzo[g]indole]", "GI50": 41.6}
{"system": "Kidney", "test": "NCI GI50 on tumor cells, kidney", "assay_type": "cell-based, human", "conditions": "Kidney cell lines; NA = inactive products", "protocol": "as §1", "units": {"GI50": "µM"}}
{"smiles": "c1ccc2c(c1)CCc1c(-c3nnco3)c[nH]c1-2", "note": "[Ie, 3-[[1,3,4]oxadiazol-2′-yl]-4,5-dihydro-1H-benzo[g]indole]", "GI50": 27.5}
{"smiles": "c1ccc2c(c1)ccc1c(-c3nnco3)c[nH]c12", "note": "[Ih, 3-[[1,3,4]oxadiazol-2′-yl]-1H-benzo[g]indole]", "GI50": 38}
{"smiles": "c1ccc(-c2nnc(-c3c[nH]c4c3ccc3ccccc34)o2)cc1", "note": "[Il, 3-[[1,3,4]oxadiazole-5′-phenyl-2′-yl]-1H-benzo[g]indole]", "GI50": 2.04}
{"smiles": "Cn1cc(-c2nnco2)c2ccc3ccccc3c21", "note": "[Im, 1-methyl-3-[[1,3,4]oxadiazol-2′-yl]-1H-benzo[g]indole]", "GI50": 20.8}
{"system": "Prostate", "test": "NCI GI50 on tumor cells, prostate", "assay_type": "cell-based, human", "conditions": "Prostate cell lines; NA = inactive products", "protocol": "as §1", "units": {"GI50": "µM"}}
{"smiles": "c1ccc2c(c1)CCc1c(-c3nnco3)c[nH]c1-2", "note": "[Ie, 3-[[1,3,4]oxadiazol-2′-yl]-4,5-dihydro-1H-benzo[g]indole]", "GI50": 32.3}
{"smiles": "c1ccc2c(c1)ccc1c(-c3nnco3)c[nH]c12", "note": "[Ih, 3-[[1,3,4]oxadiazol-2′-yl]-1H-benzo[g]indole]", "GI50": 62.3}
{"smiles": "c1ccc(-c2nnc(-c3c[nH]c4c3ccc3ccccc34)o2)cc1", "note": "[Il, 3-[[1,3,4]oxadiazole-5′-phenyl-2′-yl]-1H-benzo[g]indole]", "GI50": 1.28}
{"smiles": "Cn1cc(-c2nnco2)c2ccc3ccccc3c21", "note": "[Im, 1-methyl-3-[[1,3,4]oxadiazol-2′-yl]-1H-benzo[g]indole]", "GI50": 54.9}
{"system": "Breast", "test": "NCI GI50 on tumor cells, breast", "assay_type": "cell-based, human", "conditions": "Breast cell lines; NA = inactive products", "protocol": "as §1", "units": {"GI50": "µM"}}
{"smiles": "c1ccc2c(c1)CCc1c(-c3nnco3)c[nH]c1-2", "note": "[Ie, 3-[[1,3,4]oxadiazol-2′-yl]-4,5-dihydro-1H-benzo[g]indole]", "GI50": 27.5}
{"smiles": "c1ccc2c(c1)ccc1c(-c3nnco3)c[nH]c12", "note": "[Ih, 3-[[1,3,4]oxadiazol-2′-yl]-1H-benzo[g]indole]", "GI50": 40}
{"smiles": "c1ccc(-c2nnc(-c3c[nH]c4c3ccc3ccccc34)o2)cc1", "note": "[Il, 3-[[1,3,4]oxadiazole-5′-phenyl-2′-yl]-1H-benzo[g]indole]", "GI50": 0.6}
{"smiles": "Cn1cc(-c2nnco2)c2ccc3ccccc3c21", "note": "[Im, 1-methyl-3-[[1,3,4]oxadiazol-2′-yl]-1H-benzo[g]indole]", "GI50": 44.6}
{"system": "60 human tumor cell lines", "test": "NCI primary screening on 60 human tumor cell lines, mean over various tumor cells", "assay_type": "cell-based", "conditions": "in words; in both cases (three-cell-line preliminary tests and various tumor cells)", "protocol": "(§2) The cytotoxic activity of compounds (I) was evidenced in primary screening studies on 60 human tumor cell lines.\nas §1"}
{"smiles": "c1ccc(-c2nnc(-c3c[nH]c4c3ccc3ccccc34)o2)cc1", "note": "[Il, 3-[[1,3,4]oxadiazole-5′-phenyl-2′-yl]-1H-benzo[g]indole]", "antiproliferative activity": "significant antiproliferative activity"}
{"system": "60 human tumor cell lines", "test": "NCI primary screening on 60 human tumor cell lines, mean over various tumor cells", "assay_type": "cell-based", "conditions": "mean over the tumor cell panels; NA = inactive products", "protocol": "as §2, §1", "units": {"GI50 Mean": "µM"}}
{"smiles": "c1ccc2c(c1)CCc1c(-c3nnco3)c[nH]c1-2", "note": "[Ie, 3-[[1,3,4]oxadiazol-2′-yl]-4,5-dihydro-1H-benzo[g]indole]", "GI50 Mean": 26.3}
{"smiles": "c1ccc2c(c1)ccc1c(-c3nnco3)c[nH]c12", "note": "[Ih, 3-[[1,3,4]oxadiazol-2′-yl]-1H-benzo[g]indole]", "GI50 Mean": 35.4}
{"smiles": "c1ccc(-c2nnc(-c3c[nH]c4c3ccc3ccccc34)o2)cc1", "note": "[Il, 3-[[1,3,4]oxadiazole-5′-phenyl-2′-yl]-1H-benzo[g]indole]", "GI50 Mean": 1.28}
{"smiles": "Cn1cc(-c2nnco2)c2ccc3ccccc3c21", "note": "[Im, 1-methyl-3-[[1,3,4]oxadiazol-2′-yl]-1H-benzo[g]indole]", "GI50 Mean": 33.1}
